Consider two compounds from patent publication US20250186604A1, “ANTI-PSMA ANTIBODY CONJUGATES” (ADC THERAPEUTICS SA, priority 2023, published 2025).

Structures are written as SMILES. Starred links: 1 amine or outer side, 2 acyl side, 3 side chain; linkers in the order of their positions; H or OH if unused. Non-standard residues stand in square brackets, D forms with d. Residues, ends and D or L forms follow the SMILES beside them. *: point of attachment. Exatecan = CC[C@@]1(O)C(=O)OCc2c1cc1n(c2=O)Cc2c-1nc1cc(F)c(C)c3c1c2[C@@H](N*)CC3; Propanoyl(3-maleimido) = O=C1C=CC(=O)N1CCC(=O)*; PABC = O=C(OCc1ccc(N[*:1])cc1)[*:2]

Data set [1] addresses T1, topo I/DNA complex (Homo sapiens, UniProt P11387).
T1 sequence (P11387 1-765): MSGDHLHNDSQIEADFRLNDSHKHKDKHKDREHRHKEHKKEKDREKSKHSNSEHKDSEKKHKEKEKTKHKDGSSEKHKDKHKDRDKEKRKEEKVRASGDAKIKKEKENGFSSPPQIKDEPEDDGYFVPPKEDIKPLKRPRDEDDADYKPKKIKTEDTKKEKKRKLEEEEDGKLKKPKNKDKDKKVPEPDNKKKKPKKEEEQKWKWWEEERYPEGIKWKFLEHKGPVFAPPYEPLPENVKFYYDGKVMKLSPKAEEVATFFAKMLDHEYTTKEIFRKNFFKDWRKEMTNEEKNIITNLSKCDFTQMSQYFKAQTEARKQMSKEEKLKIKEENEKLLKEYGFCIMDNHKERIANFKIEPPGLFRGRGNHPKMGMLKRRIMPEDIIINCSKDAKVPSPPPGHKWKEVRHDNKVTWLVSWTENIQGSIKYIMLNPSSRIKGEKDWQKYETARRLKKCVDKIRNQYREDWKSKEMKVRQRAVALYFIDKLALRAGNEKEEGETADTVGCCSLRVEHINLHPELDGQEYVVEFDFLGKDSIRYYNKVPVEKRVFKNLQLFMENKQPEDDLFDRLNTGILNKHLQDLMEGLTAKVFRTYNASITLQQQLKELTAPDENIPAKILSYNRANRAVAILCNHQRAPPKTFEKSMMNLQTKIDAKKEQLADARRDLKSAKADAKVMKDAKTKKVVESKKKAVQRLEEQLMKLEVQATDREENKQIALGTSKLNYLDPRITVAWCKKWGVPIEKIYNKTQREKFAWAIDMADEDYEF
As to conditions: versus SN38 (the active metabolite of irinotecan); cited from earlier work.

Data set [2] relates to a variety of cell lines. As to conditions: versus SN38; cited from earlier work.
Data set [3] can be described thus: Aggregation during conjugation to a test antibody (% monomer by SEC). The note with it: drug linker conjugated to a test antibody. Type of data set: physicochemical. Here is the method: 2 mg of a test monoclonal antibody at 8.87 mg/ml was pH adjusted with 5% 0.5 M Tris, 0.025 M EDTA, pH 8.5 and reduced with 2.3 mol. eq. TCEP and then conjugated with 6mol. eq. drug linker. After buffer exchange into 30 mM Histidine, 175 mM Sucrose pH 6.0/PBS, the drug to antibody ratio (DAR) was by HIC/LC-MS and % Monomer by size exclusion chromatography (SEC). Percentage monomer values of 95% or greater are assessed as low aggregation.
Aggregation levels were assessed during the conjugation to a test antibody. Conjugation was performed as described above for ADC-1.
During conjugation, we are ideally targeting a monomer content or percentage monomer of 95% or above. Low percentage monomer values usually translate to a higher degree of aggregation. One could therefore agree that percentage monomer values of 95% or higher mean very low levels of aggregation or none, whereas values below this threshold often translate to higher levels of aggregation.
On the technique in general: Size exclusion chromatography separates by hydrodynamic size, large species first.

Data set [4] is described as follows: RP-HPLC retention time correlated with hydrophobicity. It is filed as physicochemical. The note with it: high Rt = hydrophobic, low Rt = hydrophilic. Here is the method: • Column: Phenomenex Gemini NX 5 m, C18, 110Å, 150×4.6 mm • Instrument: Shimadzu LC-2030 • Mobile phase: A) water (0.05% TFA), B) acetonitrile (0.05% TFA) • Gradient: 20-70% B over 15 min, flow 1.0 mL/min
A correlation study was also carried out using Reverse-Phase HPLC (RP-HPLC). The two constructs were injected in RP-HPLC and retention times (Rt) correlated with hydrophobicity—i.e., high Rt was associated to hydrophobic constructs whereas low Rt to hydrophilic ones.

On to `CC[C@@]1(O)C(=O)OCc2c1cc1n(c2=O)Cc2c-1nc1cc(F)c(C)c3c1c2[C@@H](N)CC3` [Exatecan], for which, in data set [1], the “potency relative to SN38 at stabilizing the topo I/DNA complex” value is reported as “about 2.5 fold”. The “potency relative to SN38 as a cytotoxin” value in data set [2] was “about 2.5 fold”.
Take `CC[C@@]1(O)C(=O)OCc2c1cc1n(c2=O)Cc2c-1nc1cc(F)c(C)c3c1c2[C@@H](NC(=O)OCc1ccc(NC(=O)[C@H](C)NC(=O)[C@@H](NC(=O)CNC(=O)CNC(=O)CNC(=O)CNC(=O)CNC(=O)CCN2C(=O)C=CC2=O)C(C)C)cc1)CC3` [Mal-Gly5-VA-PABC-Exatecan] ({Propanoyl(3-maleimido)}-GGGGGVA[PABC]-Exatecan): in data set [3] (SEC, 95% or greater = low aggregation), the “Aggregation (% monomer)” value is listed as “(98%)”. Also, the Aggregation entry in data set [3] (grade in words) was “None”. For the same compound, in data set [4], the Rt is given as 9.76 min.
